Experimental findings from paper PMC7284870, “Antimicrobial Peptides from Rat-Tailed Maggots of the Drone Fly Eristalis tenax Show Potent Activity against Multidrug-Resistant Gram-Negative Bacteria” (Microorganisms, 2020) are described below.

Values after ≈ are worked out from the molar mass of the structure shown. Values joined by “and” are separate entries in the source; they are usually repeats but may differ in a detail not shown here. Equal values may be shown once. Read-outs that look alike come from different tables or passages of the source. No end group written: not given here.

The test system of one series is K. pneumoniae RKI 93/10. The experiment in a line: microbe, parasite or virus in culture. The class given is cell-based, Klebsiella pneumoniae. The protocol:
The strains that were used in this study (Table 2 and Table S1) were cultivated at 37 °C in cation-adjusted Mueller–Hinton broth (CAMB) in Erlenmeyer flasks, or on the same medium with agar in Petri dishes. Exceptionally, Mycobacterium smegmatis was cultivated at 37 °C in brain heart infusion (BHI) medium that was supplemented with 1% Tween-80 in Erlenmeyer flasks, or on the same medium lacking detergent but with agar in Petri dishes. Strains listed with Robert Koch Institute (RKI) strain numbers are clinical isolates from the RKI strain collection originating from hospitalized patients in Germany. The remaining strains originated from the Sanofi strain collection and they were originally purchased from the American Type Culture Collection or the German Collection of Microorganisms and Cell Cultures. Meropenem/colistin-resistant strains were maintained, as described above, with the appropriate antibiotic added at levels below the minimal inhibitory concentration (MIC).
The MIC values were determined in 384-well microtiter plates with an assay volume of 20 µL. Immediately before each assay, the cultures of test organisms (bacteria grown for 18 h, Candida albicans and M. smegmatis grown for 48 h) were diluted with the appropriate medium to a density of 1 × 10^6 cells/mL (C. albicans), 1 × 10^5 cells/mL (M. smegmatis) or 5 × 10^5 cells per mL (other species). […] We transferred 2-µL aliquots from this dilution series to new 384-well microtiter plates while using a CyBio-Well 384-channel automated pipettor (Analytic Jena, Jena, Germany) and added 18 µL of the diluted suspension of each test species using a Viafill reagent dispenser (Integra), thus reducing the final peptide concentration 10-fold to the range 1024–0.03125 µg/mL. […] The growth of M. smegmatis was measured using the BacTiter-Glo luminescence test system (Promega, Madison, WI, USA). The growth of the other species was determined by visual inspection of the microtiter plate and turbidimetry based on the optical density at 600 nm (OD600). The MIC was defined as the peptide concentration at which no bacterial growth was observed. We supplemented the test medium with either 150 mM NaCl or 1.25 mM CaCl2 to represent monovalent and divalent cations to simulate physiological conditions.

Series [1] has as its system Stenotrophomonas maltophilia RKI 136/09. The class given is cell-based. The method, boiled down: (§1)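 Broth microdilution in cation-adjusted Mueller–Hinton broth, inoculum 5 × 10^5 cells/mL from 18 h cultures; final peptide range 1024–0.03125 µg/mL, medium supplemented with 150 mM NaCl or 1.25 mM CaCl2. Growth scored visually and by OD600; MIC = lowest concentration without growth.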

Series [2] in a line: Metabolic stability in human hepatocytes. The class given is in vitro ADME. As to conditions: cryopreserved human hepatocytes in suspension, 0.5 × 10^6 cells/mL, 1 µM peptide. As to the method: The metabolic stability of the E. tenax peptides was assessed by determining the intrinsic clearance while using cryopreserved human hepatocytes in suspension culture in a volume of 60 µL with a seeding densitiy of 0.5 × 10^6 hepatocytes/mL. The peptides were added at a concentration of 1 µM (4.14, 4.28, and 6.65 µg/mL for EtCec1-a, EtCec2-a, and EtDip, respectively). Scaled hepatic clearance for human was calculated based on a weight of 25.71 g liver/kg and a hepatocellularity of 99 × 10^6 cells/g liver.

For another series, the system named is E. coli ATCC 25922. The method, boiled down: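 MIC was determined by broth microdilution in cation-adjusted Mueller–Hinton broth at 5 × 10^5 cells/mL. Peptides were tested at 1024–0.03125 µg/mL final, with 18 h incubation at 37 °C with shaking. Growth was scored visually and by OD600. Medium was supplemented with 150 mM NaCl or 1.25 mM CaCl2.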
The nature of another series: Plasma stability. The note with it: 37 °C, LC-MS, triplicate; for remaining at 24 h, 5 µM: after 24 h, read-out: peptide remaining in plasma; for hydrolysis in plasma: 5 µM. The class given is in vitro ADME. The protocol: EtCec1-a, EtCec2-a, and EtDip were dissolved as 1 mM stock solutions in sterile deionized water and then incubated in 500 µL plasma from different species (human, mouse and rat) to a final concentration of 5 µM (20.7, 21.4, and 33.3 µg/mL for EtCec1-a, EtCec2-a, and EtDip, respectively) at 37 °C. At different time points (0, 1, 4, and 24 h), 100-µL samples were transferred to 500 µL ethanol containing 0.5% (v/v) NH3, and the plasma proteins were precipitated by centrifugation for 20 min. at 1735× g. EtCec1-a, EtCec2-a, and EtDip (10 µL injection volume) were analyzed in triplicate by LC-MS, and their stability was evaluated by comparing samples of with plasma incubated timepoints (t1, t4, t24) to untreated samples (t0). The peptides were separated on an AERIS Peptide 3.6-µm XB-C18 50 × 2.1 mm column (Phenomenex, Torrance, CA, USA) with an ascending acetonitrile gradient in water (that was supplemented with 0.1% formic acid) at a flow rate of 500 µL/min.

Series [3] relates to Mycobacterium smegmatis ATCC 607. The class given is cell-based. As to conditions: BHI, 48 h, 37 °C, BacTiter-Glo, n = 4.
In series [4] the test system is Staphylococcus epidermidis ATCC 35984. The class given is cell-based. The note with it: CAMB, 18 h, 37 °C, n = 4. The method, boiled down:
as §1

Setting [5] is: CAMB + 0.075 µg/mL colistin (Col), n=3.
Where [6] appears, read: CAMB adjusted to 150 mM NaCl, n=3.
Where [7] appears, read: CAMB + A000173039A [0.25 µg/mL].
The mark [8] stands for this setting: CAMB + A000499933A [0.0625 µg/mL].
[9] abbreviates: CAMB + A000500059A [0.0625 µg/mL].
Setting [10] is: CAMB + A000500146A [0.0625 µg/mL].
[11] abbreviates: CAMB + Colistin E1 [0.016 µg/mL].
Where [12] appears, read: CAMB + Colistin E2 [0.016 µg/mL].

With `C[C@@H](O)[C@H]1C(=O)N2C(C(=O)O)=C(S[C@@H]3CN[C@H](C(=O)N(C)C)C3)[C@H](C)[C@H]12` [MEM, meropenem], the MIC in the series on K. pneumoniae RKI 93/10 (Klebsiella pneumoniae, RKI93/10) is 64 µg/mL (≈ 167 µM); in series [1] (Table S1, RKI 136/09), more than 64 µg/mL.
As usually defined, the half-life is the time in which the quantity being followed falls by half. A higher half-life goes with slow decline. The term amount remaining denotes the share of the starting amount still present when the sample was taken. In the case of “GFLKKIGKKLEGAVQRTRDATIQTIAVAQAAANVAATAKQ-NH2 [EtCec1-NH2]”, the MIC against K. pneumoniae RKI 93/10 (RKI 93/10, 18 h) was found to be 8 µg/mL; against E. coli ATCC 25922 (ATCC 25922, 18 h) it was 8 µg/mL. For the same compound, the half-life in series [2] is more than 3.33 h. The compound also showed a half-life at 1 µM in series [2] of 7.13 h. For the same compound, the fraction remaining at 24 h, 5 µM in the series “Plasma stability” (human plasma) worked out at 48%. The hydrolysis in plasma entry is reported as “completely hydrolyzed” in “Plasma stability” (mouse plasma, within 24 h) and “completely hydrolyzed” in the series “Plasma stability” (rat plasma, within 24 h).
Consider “GWLRDFGKRIERTGQNIRDATIQTIGIAQEAANVAATLK-NH2 [EtCec2-NH2]”, for which the MIC in the series with K. pneumoniae RKI 93/10 (setting [5]) is listed as 8 µg/mL; against K. pneumoniae RKI 93/10 (setting [6]) it was 256 µg/mL; in the series on K. pneumoniae RKI 93/10 (Table 4, CAMB, n=3) it was 64 µg/mL; in the series on E. coli ATCC 25922 (setting [5]), 4 µg/mL; in the series with E. coli ATCC 25922 (CAMB + A000160918 [4 µg/mL]) it was more than 256 µg/mL; with E. coli ATCC 25922 (CAMB + A000161246 [4 µg/mL]) it was more than 256 µg/mL. The MIC was more than 256 µg/mL in the series on E. coli ATCC 25922 (CAMB + A000173031A [4 µg/mL]); more than 256 µg/mL in the series with E. coli ATCC 25922 (CAMB + A000173033A [4 µg/mL]); more than 256 µg/mL with E. coli ATCC 25922 (setting [7]); more than 256 µg/mL in the series with E. coli ATCC 25922 (CAMB + A000173380A [4 µg/mL]); more than 256 µg/mL in the series with E. coli ATCC 25922 (CAMB + A000498432A [4 µg/mL]); 128 µg/mL in the series with E. coli ATCC 25922 (setting [8]). Besides, the MIC in the series on E. coli ATCC 25922 (setting [9]) amounted to 256 µg/mL; in the series on E. coli ATCC 25922 (setting [10]), 4 µg/mL; with E. coli ATCC 25922 (CAMB + A000501181A [4 µg/mL]), 256 µg/mL; with E. coli ATCC 25922 (setting [11]), 4 µg/mL; in the series with E. coli ATCC 25922 (setting [12]), 2 µg/mL; with E. coli ATCC 25922 (CAMB + PMB [0.016 µg/mL]), 2 µg/mL. Further, the MIC in the series on E. coli ATCC 25922 (CAMB + PMBN [4 µg/mL]) is recorded as more than 256 µg/mL; against E. coli ATCC 25922 (setting [6]), 32 µg/mL; against E. coli ATCC 25922 (CAMB, 18 h, 37 °C, n = 4) it was 32 µg/mL; against E. coli ATCC 25922 (Table 4, CAMB, n=3), 32 µg/mL; in the series with E. coli ATCC 25922 (Table 6, CAMB) it was 32 µg/mL; in series [3], more than 1024 µg/mL. In addition, the MIC in series [4] is more than 1024 µg/mL; in series [1] (setting [6]), 512 µg/mL; in series [1] (Table 4, CAMB, n=3), 256 µg/mL. This compound yielded a half-life in series [2] of more than 3.33 h. This compound showed a half-life at 1 µM in series [2] of 3.43 h. In addition, the amount remaining at 24 h, 5 µM in the series “Plasma stability” (human plasma) was determined as 22%. The hydrolysis in plasma result in the series “Plasma stability” (mouse plasma, within 24 h) is “completely hydrolyzed”; in the series “Plasma stability” (rat plasma, within 24 h), “completely hydrolyzed”.
As to “QFNMQGGGSPRQGFDVNANARFPIWQSQNARNSVHGTASYAQHLGGPYGNSRPNFGGGLQFT [EtDip, diptericin-like peptide of Eristalis tenax]”, the MIC in the series on K. pneumoniae RKI 93/10 (setting [5]) is more than 1024 µg/mL; against K. pneumoniae RKI 93/10 (Table 5, CAMB, n=3), more than 1024 µg/mL; with E. coli ATCC 25922 (setting [5]), 4 µg/mL; in the series on E. coli ATCC 25922 (CAMB + A000160918 [4 µg/mL]), more than 256 µg/mL; in the series on E. coli ATCC 25922 (CAMB + A000161246 [4 µg/mL]), more than 256 µg/mL; in the series on E. coli ATCC 25922 (CAMB + A000173031A [4 µg/mL]), more than 256 µg/mL. Moreover, the MIC in the series on E. coli ATCC 25922 (CAMB + A000173033A [4 µg/mL]), in the series on E. coli ATCC 25922 (setting [7]), in the series with E. coli ATCC 25922 (CAMB + A000173380A [4 µg/mL]), with E. coli ATCC 25922 (CAMB + A000498432A [4 µg/mL]), in the series with E. coli ATCC 25922 (setting [8]) and in the series with E. coli ATCC 25922 (setting [9]) was more than 256 µg/mL each time. Further, the MIC is 4 µg/mL in the series on E. coli ATCC 25922 (setting [10]); more than 256 µg/mL in the series on E. coli ATCC 25922 (CAMB + A000501181A [4 µg/mL]); more than 256 µg/mL in the series with E. coli ATCC 25922 (setting [11]); 2 µg/mL in the series on E. coli ATCC 25922 (setting [12]); 2 µg/mL with E. coli ATCC 25922 (CAMB + PMB [0.016 µg/mL]); more than 256 µg/mL in the series on E. coli ATCC 25922 (CAMB + PMBN [4 µg/mL]). Moreover, the MIC against E. coli ATCC 25922 (CAMB, 18 h, 37 °C, n = 4) is on record as more than 1024 µg/mL; in the series with E. coli ATCC 25922 (Table 5, CAMB, n=3), more than 1024 µg/mL; in the series on E. coli ATCC 25922 (Table 6, CAMB), more than 256 µg/mL; in series [3], 64 µg/mL; in series [4] it was more than 1024 µg/mL. Moreover, the half-life in series [2] was 5.75 h and > 3.33 h. The hydrolysis in plasma in “Plasma stability” (human plasma, after 1 h) was not below 83%; in the series “Plasma stability” (mouse plasma, after 1 h) it was not below 83%; in “Plasma stability” (rat plasma, after 1 h) it was not below 83%.
